# From publication PMC11843613, “Further Optimization of the mGlu1 PAM VU6024578/BI02982816: Discovery and Characterization of VU6033685” (ACS Chemical Neuroscience, 2025)
# Tests used:
# rat mGlu1 = rat mGlu1 (Rattus norvegicus, UniProt P23385); experiment: mGlu1 PAM functional assay (rat); format: cell-based
# [1] = Unbound fraction in brain (rat); format: in vitro ADME; details: read-out: fu brain (rat)
# [2] = Rat IV/PO pharmacokinetics; format: in vivo; details: for clearance / Tmax / Vd / half-life: plasma; for clearance / Vd: rat IV; for clearance: read-out: CLp; for Tmax / F po: rat PO; for Vd / half-life: rat; for Vd: iv, read-out: Vss; for half-life: read-out: Elimination t1/2 (converted)
# [3] = Predicted hepatic clearance from hepatic microsomes (rat); format: in vitro ADME
# Experimental: Intrinsic clearance: Human or rat hepatic microsomes (0.5 mg/mL) and 1 µM test compound were incubated in 100 mM potassium phosphate pH 7.4 buffer with 3 mM MgCl2 at 37°C with constant shaking.
# After a 5 min preincubation, the reaction was initiated by addition of NADPH (1 mM). At selected time intervals (0, 3, 7, 15, 25, and 45 min), aliquots were taken and subsequently placed into a 96-well plate containing cold acetonitrile with internal standard (50 ng/mL carbamazepine). Plates were then centrifuged at 3000 rcf (4° C) for 10 min, and the supernatant was transferred to a separate 96-well plate and diluted 1:1 with water for LC/MS/MS analysis. The in vitro half-life (T 1/2, min, Eq. 1), intrinsic clearance (CLint, mL/min/kg, Eq. 2) and subsequent predicted hepatic clearance (CLhep, mL/min/kg, Eq. 3) was determined […]
# employing the following equations: […]
# where k represents the slope from linear regression analysis of the natural log percent remaining of test compound as a function of incubation time
# 0.693 mL incubation 45 mg microsomes 20a gram liver
# (2) CLint = in vitroT x mg microsomes x gram liver x kg body wt […]
# ascale-up factors: of 20 (human) or 45 (rat) […]
# where Qh (hepatic blood flow, mL/min/kg) is 21 (human) or 70 (rat).
# LC/MS/MS Bioanalysis of Samples from Plasma Protein Binding and Intrinsic Clearance Assays. Samples were analyzed on a Thermo Electron TSQ Quantum Ultra triple quad mass spectrometer (San Jose, CA) via electrospray ionization (ESI) with two Themo Electron Accella pumps (San Jose, CA), and a Leap Technologies CTC PAL autosampler (Carrboro, NC). Analytes were separated by gradient elution on a dual column system with two Thermo Hypersil Gold (2.1 x 30 mm, 1.9 µm) columns (San Jose, CA) thermostated at 40°C. HPLC mobile phase A was 0.1% formic acid in water and mobile phase B was 0.1% formic acid in acetonitrile. The gradient […]
# 95% B for 0.2 min; returned to 10% B in 0.1 min. The total run time was 1.3 min and the HPLC flow rate was 0.8 mL/min. While pump 1 ran the gradient method, pump 2 equilibrated the alternate column isocratically at 10% B. Compound optimization, data collection and […]
# CYP450 3A4 = biological target: T1, CYP450 3A4 (Homo sapiens, UniProt P08684); experiment: Inhibition of cytochrome P450 enzymes in human liver microsomes, 3A4; format: in vitro ADME
# T1 construct: 0.1 mg/mL human liver microsomes (HLM); from tissue; host or cells: human liver microsomes
# T1 sequence (P08684 whole entry): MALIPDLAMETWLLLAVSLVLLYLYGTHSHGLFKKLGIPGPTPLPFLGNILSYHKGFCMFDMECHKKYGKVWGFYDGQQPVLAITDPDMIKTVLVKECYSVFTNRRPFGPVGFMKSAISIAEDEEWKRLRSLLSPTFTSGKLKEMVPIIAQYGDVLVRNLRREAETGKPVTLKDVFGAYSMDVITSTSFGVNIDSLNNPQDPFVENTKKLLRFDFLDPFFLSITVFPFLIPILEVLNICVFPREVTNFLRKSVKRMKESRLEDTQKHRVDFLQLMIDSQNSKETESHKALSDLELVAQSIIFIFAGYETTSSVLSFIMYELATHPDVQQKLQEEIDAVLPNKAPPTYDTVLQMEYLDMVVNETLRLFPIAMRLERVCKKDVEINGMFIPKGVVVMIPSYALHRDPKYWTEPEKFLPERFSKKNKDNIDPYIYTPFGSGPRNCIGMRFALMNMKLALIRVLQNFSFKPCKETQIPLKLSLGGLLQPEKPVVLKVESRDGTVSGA
# Experimental: Inhibition of Cytochrome P450 Enzymes: A cocktail of substrates for cytochrome P450 enzymes (1A2: Phenacetin, 10 µM; 2C9: Diclofenac, 5 µM; 2D6: Dextromethorphan, 5 µM; 3A4:
# Midazolam, 2 µM) were mixed for cocktail analysis. For P450 2C19, the substrate stock (Mephenytoin, 40 µM )and substrate mix were prepared separately for discrete analysis. The […]
# positive control for pan-P450 inhibition (miconazole) was included alongside each test compound […]
# A reaction mixture of 100 mM Kpi, pH 7.4, 0.1 mg/mL human liver microsomes (HLM) and Substrate Mix is prepared and aliquoted into a 96-deepwell block. Test compound and positive control (in duplicate) were then added such that the final concentration of test compound ranged from 0.1 – 30 µM. The plate was vortexed briefly and then pre-incubated at 37 °C while shaking for 15 minutes. The reaction was initiated with the addition of NADPH (1 mM final concentration). The incubation continued for 8 min and the reaction quenched by 2x volume of cold acetonitrile containing internal standard (50 nM carbamazepine). The plate was centrifuged for 10 minutes (4000 rcf, 4°C) and the resulting supernatant diluted 1:1 with water for LC/MS/MS analysis. A 12 point standard curve of substrate metabolites over the range of 0.98 nM to 2000 […]
# Samples were analyzed via electrospray ionization (ESI) on an AB Sciex API-4000 (Foster City, CA) triple-quadrupole instrument that was coupled with Shimadzu LC-10AD pumps (Columbia, MD) and a Leap Technologies CTC PAL auto-sampler (Carrboro, NC). Analytes were separated by gradient elution using a Fortis C18 3.0 x 50 mm, 3 µm column (Fortis Technologies Ltd, Cheshire, UK) thermostated at 40°C. HPLC mobile phase A was 0.1% formic acid in water (pH unadjusted), mobile phase B was 0.1% formic acid in acetonitrile (pH unadjusted). The gradient […]
# 90% B for 0.1 min and returned to 10% B in 0.1 min followed by a re-equilibration (0.9 min). The total run time was 2.5 min and the HPLC flow rate was 0.5 mL/min. The source temperature was set at 500°C and mass spectral analyses were performed using multiple reaction monitoring (MRM), with transitions specific for each compound utilizing a Turbo-Ionspray® source in positive ionization mode (5.0 kV spray voltage).
# The IC50 values for each compound were obtained for the individual CYP enzymes by quantitating the inhibition of metabolite formation for each probe substrate. A 0 µM compound condition (or control) was set to 100% enzymatic activity and the effect of increasing test compound concentrations on enzymatic activity could then be calculated from the % of control activity.
# Curves were fitted using XLfit 5.2.2 (four-parameter logistic model, equation 201) to determine the concentration that produces half-maximal inhibition (IC50).
# rat mGlu1, sequence (P23385 19-1199): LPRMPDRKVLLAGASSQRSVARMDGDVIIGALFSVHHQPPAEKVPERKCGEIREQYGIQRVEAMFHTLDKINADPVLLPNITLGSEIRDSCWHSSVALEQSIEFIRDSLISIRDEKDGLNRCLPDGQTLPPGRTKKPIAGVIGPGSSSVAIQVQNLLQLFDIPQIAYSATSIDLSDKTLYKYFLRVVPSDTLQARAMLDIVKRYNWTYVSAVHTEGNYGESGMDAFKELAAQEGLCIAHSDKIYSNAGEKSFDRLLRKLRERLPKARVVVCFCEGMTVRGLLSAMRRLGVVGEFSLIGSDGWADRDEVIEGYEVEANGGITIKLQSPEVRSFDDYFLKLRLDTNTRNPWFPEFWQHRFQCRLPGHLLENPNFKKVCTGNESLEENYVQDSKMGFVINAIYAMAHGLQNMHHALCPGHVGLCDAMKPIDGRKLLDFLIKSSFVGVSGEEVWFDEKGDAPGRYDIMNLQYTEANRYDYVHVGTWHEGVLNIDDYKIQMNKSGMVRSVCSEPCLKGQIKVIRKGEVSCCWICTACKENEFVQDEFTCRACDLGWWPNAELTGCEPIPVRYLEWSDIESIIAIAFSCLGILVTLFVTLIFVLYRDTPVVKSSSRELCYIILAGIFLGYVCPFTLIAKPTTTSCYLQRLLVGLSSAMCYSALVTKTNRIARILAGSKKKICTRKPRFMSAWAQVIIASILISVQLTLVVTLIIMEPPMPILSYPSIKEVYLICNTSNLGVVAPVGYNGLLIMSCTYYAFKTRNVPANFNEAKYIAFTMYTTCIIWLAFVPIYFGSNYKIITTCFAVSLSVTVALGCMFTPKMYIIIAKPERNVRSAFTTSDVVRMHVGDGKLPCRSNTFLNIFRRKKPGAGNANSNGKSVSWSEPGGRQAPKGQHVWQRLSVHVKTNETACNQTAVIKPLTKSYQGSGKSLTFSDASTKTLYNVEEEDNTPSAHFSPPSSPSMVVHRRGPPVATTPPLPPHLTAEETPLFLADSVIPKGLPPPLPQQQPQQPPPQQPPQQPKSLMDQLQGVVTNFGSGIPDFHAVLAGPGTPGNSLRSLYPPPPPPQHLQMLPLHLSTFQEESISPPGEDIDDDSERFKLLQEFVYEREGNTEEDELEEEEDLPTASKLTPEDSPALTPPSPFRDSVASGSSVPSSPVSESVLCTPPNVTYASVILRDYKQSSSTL
Structure (SMILES),EC50 (rat mGlu1),rat mGlu1 Glu Max (rat mGlu1),fraction unbound [1],clearance [2],F po [2],Vd [2],half-life [2],Predicted CLhep (r) [3],IC50 (CYP450 3A4),Tmax [2]
Cc1nc(C2CC2)ccc1CNC(=O)c1cc(-n2cccn2)ccc1Cl [compound 8],0.107 µM,94%,0.062,26.4 mL/min/kg,42.8%,5.1 L/kg,2.1 h,46.7 mL/min/kg,23.8 µM,0.5 h
Cn1cc(-c2cc(CNC(=O)c3cc(-c4ccco4)ccc3Cl)n(C)n2)cn1 [compound 4],0.037 µM,137%,0.044,–,–,–,–,34.2 mL/min/kg,> 30 µM,–
Cn1nc(-c2ccnn2C)cc1CNC(=O)c1cc(-n2cccn2)ccc1Cl [compound 5],0.558 µM,105%,0.185,2.9 mL/min/kg,45.7%,0.63 L/kg,3 h,21.4 mL/min/kg,> 30 µM,–

# The next lines start with results.
EC50 (rat mGlu1),rat mGlu1 Glu Max (rat mGlu1),fraction unbound [1],clearance [2],F po [2],Vd [2],half-life [2],Predicted CLhep (r) [3],IC50 (CYP450 3A4),Structure (SMILES),Tmax [2]
–,–,0.04,8 mL/min/kg,–,1 L/kg,2.1 h,46.8 mL/min/kg,9 µM,Cc1nc2c(F)cccc2cc1CNC(=O)c1cc(-n2cccn2)ccc1Cl [compound 7],–
–,–,0.047,15.3 mL/min/kg,64%,1.64 L/kg,1.1 h,47.8 mL/min/kg,8.8 µM,Cc1nc2ccccc2cc1CNC(=O)c1cc(-n2cccn2)ccc1Cl [compound 6],0.5 h
